Assay results taken from patent US8192962B2, “Processes for detecting toxic substances” (Daikin Industries, Ltd., priority 2001, dated 2012).

Test system: Genes belonging to other category
Assay: DNA chip mRNA expression in yeast, genes belonging to other category (Table 9)
Type: cell-based, Saccharomyces cerevisiae S288C
Procedure, shortened: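 Untreated cultures served as reference for log-phase S288C yeast given a growth-inhibiting, non-lethal toxicant dose for 2 h at 25° C. in YPD. Gene expression was measured on a whole-genome DNA chip from Cy3/Cy5-labeled cDNA.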

With [Cl][Pb][Cl] [(4), PbCl2] the “The level of expressed mRNA in the presence of chemical substance/The level of expressed mRNA in the absence of chemical substance” value (yeast gene YKL013C) was 1.1, the “The level of expressed mRNA in the presence of chemical substance/The level of expressed mRNA in the absence of chemical substance” value (yeast gene YKL039W) was 0.8 and the “The level of expressed mRNA in the presence of chemical substance/The level of expressed mRNA in the absence of chemical substance” value (yeast gene YKL041W) was 1.0. For the same compound, the “The level of expressed mRNA in the presence of chemical substance/The level of expressed mRNA in the absence of chemical substance” value (yeast gene YKL096W) was 1.6, the “The level of expressed mRNA in the presence of chemical substance/The level of expressed mRNA in the absence of chemical substance” value (yeast gene YKL165C) was 0.6 and the “The level of expressed mRNA in the presence of chemical substance/The level of expressed mRNA in the absence of chemical substance” value (yeast gene YKL193C) was 1.4. For the same compound, the “The level of expressed mRNA in the presence of chemical substance/The level of expressed mRNA in the absence of chemical substance” value (yeast gene YLR120C) was 1.6, the “The level of expressed mRNA in the presence of chemical substance/The level of expressed mRNA in the absence of chemical substance” value (yeast gene YLR136C) was 3.3 and the “The level of expressed mRNA in the presence of chemical substance/The level of expressed mRNA in the absence of chemical substance” value (yeast gene YLR178C) was 4.6. The “The level of expressed mRNA in the presence of chemical substance/The level of expressed mRNA in the absence of chemical substance” value (yeast gene YLR250W) was 1.4, the “The level of expressed mRNA in the presence of chemical substance/The level of expressed mRNA in the absence of chemical substance” value (yeast gene YLR327C) was 8.2 and the “The level of expressed mRNA in the presence of chemical substance/The level of expressed mRNA in the absence of chemical substance” value (yeast gene YLR356W) was 1.2. For the same compound, the “The level of expressed mRNA in the presence of chemical substance/The level of expressed mRNA in the absence of chemical substance” value (yeast gene YLR362W) was 3.0, the “The level of expressed mRNA in the presence of chemical substance/The level of expressed mRNA in the absence of chemical substance” value (yeast gene YLR391W) was 0.8 and the “The level of expressed mRNA in the presence of chemical substance/The level of expressed mRNA in the absence of chemical substance” value (yeast gene YLR429W) was 0.9. For the same compound, the “The level of expressed mRNA in the presence of chemical substance/The level of expressed mRNA in the absence of chemical substance” value (yeast gene YMR004W) was 1.3, the “The level of expressed mRNA in the presence of chemical substance/The level of expressed mRNA in the absence of chemical substance” value (yeast gene YMR094W) was 1.7 and the “The level of expressed mRNA in the presence of chemical substance/The level of expressed mRNA in the absence of chemical substance” value (yeast gene YMR104C) was 2.6. For the same compound, the “The level of expressed mRNA in the presence of chemical substance/The level of expressed mRNA in the absence of chemical substance” value (yeast gene YMR219W) was 0.7, the “The level of expressed mRNA in the presence of chemical substance/The level of expressed mRNA in the absence of chemical substance” value (yeast gene YMR226C) was 1.6 and the “The level of expressed mRNA in the presence of chemical substance/The level of expressed mRNA in the absence of chemical substance” value (yeast gene YMR275C) was 0.6. The “The level of expressed mRNA in the presence of chemical substance/The level of expressed mRNA in the absence of chemical substance” value (yeast gene YMR276W) was 0.7, the “The level of expressed mRNA in the presence of chemical substance/The level of expressed mRNA in the absence of chemical substance” value (yeast gene YMR314W) was 1.3 and the “The level of expressed mRNA in the presence of chemical substance/The level of expressed mRNA in the absence of chemical substance” value (yeast gene YNL006W) was 1.5. The “The level of expressed mRNA in the presence of chemical substance/The level of expressed mRNA in the absence of chemical substance” value (yeast gene YNL007C) was 0.8, the “The level of expressed mRNA in the presence of chemical substance/The level of expressed mRNA in the absence of chemical substance” value (yeast gene YNL093W) was 4.5 and the “The level of expressed mRNA in the presence of chemical substance/The level of expressed mRNA in the absence of chemical substance” value (yeast gene YNL333W) was 2.3. The “The level of expressed mRNA in the presence of chemical substance/The level of expressed mRNA in the absence of chemical substance” value (yeast gene YNR010W) was 2.8, the “The level of expressed mRNA in the presence of chemical substance/The level of expressed mRNA in the absence of chemical substance” value (yeast gene YNR069C) was 0.4 and the “The level of expressed mRNA in the presence of chemical substance/The level of expressed mRNA in the absence of chemical substance” value (yeast gene YOL013C) was 1.5. For the same compound, the “The level of expressed mRNA in the presence of chemical substance/The level of expressed mRNA in the absence of chemical substance” value (yeast gene YOL164W) was 1.5, the “The level of expressed mRNA in the presence of chemical substance/The level of expressed mRNA in the absence of chemical substance” value (yeast gene YOR036W) was 1.6 and the “The level of expressed mRNA in the presence of chemical substance/The level of expressed mRNA in the absence of chemical substance” value (yeast gene YOR117W) was 0.8. For the same compound, the “The level of expressed mRNA in the presence of chemical substance/The level of expressed mRNA in the absence of chemical substance” value (yeast gene YOR124C) was 0.8, the “The level of expressed mRNA in the presence of chemical substance/The level of expressed mRNA in the absence of chemical substance” value (yeast gene YOR132W) was 2.8 and the “The level of expressed mRNA in the presence of chemical substance/The level of expressed mRNA in the absence of chemical substance” value (yeast gene YOR157C) was 1.3. The “The level of expressed mRNA in the presence of chemical substance/The level of expressed mRNA in the absence of chemical substance” value (yeast gene YOR181W) was 1.4, the “The level of expressed mRNA in the presence of chemical substance/The level of expressed mRNA in the absence of chemical substance” value (yeast gene YOR185C) was 1.1 and the “The level of expressed mRNA in the presence of chemical substance/The level of expressed mRNA in the absence of chemical substance” value (yeast gene YOR198C) was 1.0. The “The level of expressed mRNA in the presence of chemical substance/The level of expressed mRNA in the absence of chemical substance” value (yeast gene YOR259C) was 0.9, the “The level of expressed mRNA in the presence of chemical substance/The level of expressed mRNA in the absence of chemical substance” value (yeast gene YOR261C) was 0.9 and the “The level of expressed mRNA in the presence of chemical substance/The level of expressed mRNA in the absence of chemical substance” value (yeast gene YOR288C) was 1.1. The “The level of expressed mRNA in the presence of chemical substance/The level of expressed mRNA in the absence of chemical substance” value (yeast gene YOR355W) was 0.8, the “The level of expressed mRNA in the presence of chemical substance/The level of expressed mRNA in the absence of chemical substance” value (yeast gene YOR383C) was 0.9 and the “The level of expressed mRNA in the presence of chemical substance/The level of expressed mRNA in the absence of chemical substance” value (yeast gene YPL089C) was 1.8. For the same compound, the “The level of expressed mRNA in the presence of chemical substance/The level of expressed mRNA in the absence of chemical substance” value (yeast gene YPL109C) was 1.2, the “The level of expressed mRNA in the presence of chemical substance/The level of expressed mRNA in the absence of chemical substance” value (yeast gene YPL149W) was 2.8 and the “The level of expressed mRNA in the presence of chemical substance/The level of expressed mRNA in the absence of chemical substance” value (yeast gene YPL154C) was 1.2. For the same compound, the “The level of expressed mRNA in the presence of chemical substance/The level of expressed mRNA in the absence of chemical substance” value (yeast gene YPR103W) was 0.7 and the “The level of expressed mRNA in the presence of chemical substance/The level of expressed mRNA in the absence of chemical substance” value (yeast gene YPR108W) was 0.6.
